Test results reported in the Kinase Knowledgebase extract (Sharma et al. 2016).

Biological target: PIK3CA (human) (UniProt P42336)
Assay: Assessment of PIK3CA Kinase Activity

PIK3CA (human), sequence (P42336 whole entry, looked up): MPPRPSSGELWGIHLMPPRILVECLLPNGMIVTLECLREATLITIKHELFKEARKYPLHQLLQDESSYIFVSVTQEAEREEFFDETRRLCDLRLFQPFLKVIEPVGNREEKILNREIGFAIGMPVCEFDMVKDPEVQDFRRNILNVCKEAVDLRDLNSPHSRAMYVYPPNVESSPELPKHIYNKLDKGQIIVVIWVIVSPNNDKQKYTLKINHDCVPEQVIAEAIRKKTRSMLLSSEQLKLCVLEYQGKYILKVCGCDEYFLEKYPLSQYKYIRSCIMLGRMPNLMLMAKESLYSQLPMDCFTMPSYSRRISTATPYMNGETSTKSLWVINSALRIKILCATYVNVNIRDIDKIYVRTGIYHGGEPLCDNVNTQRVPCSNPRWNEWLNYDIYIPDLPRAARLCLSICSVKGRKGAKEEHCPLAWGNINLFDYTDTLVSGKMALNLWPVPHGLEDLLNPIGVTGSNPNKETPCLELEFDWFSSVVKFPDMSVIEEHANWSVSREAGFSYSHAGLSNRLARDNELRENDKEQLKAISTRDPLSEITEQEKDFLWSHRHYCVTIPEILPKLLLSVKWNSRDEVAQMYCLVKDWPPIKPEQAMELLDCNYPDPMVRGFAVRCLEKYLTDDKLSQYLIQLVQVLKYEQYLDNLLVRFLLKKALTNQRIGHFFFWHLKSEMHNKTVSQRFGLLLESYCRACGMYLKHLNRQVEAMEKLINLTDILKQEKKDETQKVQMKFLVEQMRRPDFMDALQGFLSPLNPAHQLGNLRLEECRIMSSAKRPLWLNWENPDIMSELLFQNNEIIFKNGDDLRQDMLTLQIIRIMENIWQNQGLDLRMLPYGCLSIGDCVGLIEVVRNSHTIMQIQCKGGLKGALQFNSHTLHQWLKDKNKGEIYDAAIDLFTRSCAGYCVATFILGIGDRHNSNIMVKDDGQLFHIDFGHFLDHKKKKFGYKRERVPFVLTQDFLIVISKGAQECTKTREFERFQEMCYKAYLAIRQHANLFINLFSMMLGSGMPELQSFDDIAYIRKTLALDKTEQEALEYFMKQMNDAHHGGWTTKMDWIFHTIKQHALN

SMILES	IC50
CC(C)n1ncnc1-c1cn2c(n1)-c1cnc(N3CCCC3)cc1OCC2	< 1000 nM
Cc1nc(-c2cn3c(n2)-c2cnc(N4CC[C@H](O)[C@H]4C(N)=O)cc2OCC3)n(C(C)C)n1	< 1000 nM
NC(=O)[C@@H]1CCN1c1ccc2c(c1)OCCn1cc(-c3ncnn3CC(F)(F)F)nc1-2	< 1000 nM
CC(C)n1ncnc1-c1cc2n(n1)-c1cc(C(=O)NC3CNC3)ccc1OCC2	< 1000 nM
CC(C)n1ncnc1-n1cc2c(n1)-c1cc(C(=O)N3CCNCC3)ccc1OCC2	< 1000 nM
CC(C)n1ncnc1-c1cn2c(n1)-c1cnc(N3CCC[C@@]3(C)C(N)=O)cc1OCC2	< 1000 nM
NC(=O)[C@@H]1COCCN1c1ccc2c(c1)OCCn1cc(-c3ncnn3CC(F)(F)F)nc1-2	< 1000 nM
NC(=O)C1CC1c1ccc2c(c1)OCCn1cc(-c3ncnn3CC(F)(F)F)nc1-2 (stereo not drawn)	< 1000 nM
CC(C)n1ncnc1-c1cc2n(n1)-c1cc(C3CN(S(C)(=O)=O)C3)ccc1OCC2	< 1000 nM
CSc1nc(-c2cn3c(n2)-c2ccc(Br)cc2OCC3)n(C(C)C)n1	< 1000 nM
CC(C)NC(=O)CN1CCC(c2ccc3c(c2)OCCn2cc(-c4ncnn4C(C)C)nc2-3)CC1	< 1000 nM
CC(C)n1ncnc1-c1cn2c(n1)-c1ccncc1OCC2	< 1000 nM
Cc1nc(-c2cn3c(n2)-c2cnc(N4C[C@@H](O)C[C@H]4C(N)=O)cc2OCC3)n(C(C)C)n1	< 1000 nM
CC(C)(CO)N1CCC(c2ccc3c(c2)-c2nn(-c4ncnn4-c4ccc(F)cc4F)cc2CCO3)CC1	< 1000 nM
CC(C)(CO)NC(=O)c1ccc2c(c1)-c1nc(-c3ncnn3C3CCS(=O)(=O)C3)cn1CCO2 (stereo not drawn)	< 1000 nM
Cc1nc(-c2cn3c(n2)-c2ccc(C(F)F)cc2OCC3)n(C(C)C)n1	< 1000 nM
OCCN1CCN(Cc2ccc3c(c2)-n2nc(-c4ncnn4CC(F)(F)F)cc2CCO3)CC1	< 1000 nM
Cc1nc(-c2cn3c(n2)-c2cc(F)c(F)cc2OCC3)n(C(C)C)n1	< 1000 nM
c1cn(CCN2CCOCC2)c(-c2cn3c(n2)-c2cc(-c4cn[nH]c4)ccc2OCC3)n1	< 1000 nM

SMILES	IC50
Cc1nc(-c2cn3c(n2)-c2cnc(N4CCC[C@H]4C(N)=O)cc2OCC3)n(C(C)C)n1	< 1000 nM
Fc1ccc(-n2ncnc2-n2cc3c(n2)-c2ccc(Br)cc2OCC3)c(F)c1	58 nM
NC(=O)c1ccc2c(c1)OCCn1cc(-c3ncnn3-c3ccccc3Cl)nc1-2	< 1000 nM
COc1ccc(CNc2cc3c(cn2)-c2nc(-c4nc(C)nn4CC(F)(F)F)cn2CCO3)cc1OC	< 1000 nM
NC(=O)c1ccc2c(c1)OCCc1cn(-c3ncnn3-c3ccc(F)cc3F)nc1-2	< 1000 nM
Clc1ccccc1-n1ncnc1-c1cn2c(n1)-c1cc(-c3ccccc3)ccc1OCC2	< 1000 nM
COc1cc2c(cn1)-c1nc(-c3ncnn3C(C)C)cn1CCO2	< 1000 nM
CS(=O)(=O)CCNC(=O)c1ccc2c(c1)OCCn1cc(-c3ncnn3-c3ccccc3Cl)nc1-2	< 1000 nM
Cc1nc(-c2cn3c(n2)-c2ccc(-c4cnn(CC(C)C(N)=O)c4)cc2OCC3)n(C(C)C)n1 (stereo not drawn)	< 1000 nM
CO[C@H]1CCN(c2cc3c(cn2)-c2nc(-c4ncnn4C(C)C)cn2CCO3)[C@@H]1C(N)=O	< 1000 nM
CC(C)n1ncnc1-n1cc2c(n1)-c1ccc(Br)cc1OCC2	< 1000 nM
CC(C)n1ncnc1-c1cn2c(n1)-c1ccc(N3CCC[C@@H]3C(N)=O)cc1OCC2	< 1000 nM
CC(C)n1ncnc1-n1cc2c(n1)-c1cc(C(=O)NCCO)ccc1OCC2	< 1000 nM
OCCN1CCC(c2ccc3c(c2)-c2nn(-c4ncnn4-c4ccc(F)cc4F)cc2CCO3)CC1	< 1000 nM
CC(C)n1ncnc1-c1cn2c(n1)-c1ccc(OC3CC3)cc1OCC2	< 1000 nM
CC(C)n1nc(N)nc1-c1cn2c(n1)-c1ccc(-c3cnn(CCO)c3)cc1OCC2	< 1000 nM
CC(C)n1ncnc1-c1cn2c(n1)-c1cc(C(=O)N3CCC(C(C)(C)O)CC3)ccc1OCC2	< 1000 nM
CC(C)n1ncnc1-c1cn2c(n1)-c1cc(C(=O)N3CCS(=O)(=O)CC3)ccc1OCC2	< 1000 nM
Cc1nc(-c2cn3c(n2)-c2ccc(N)cc2OCC3)n(C(C)C)n1	< 1000 nM
